{"source": "ChEMBL document CHEMBL1201862", "about": "“PubChem BioAssay data set” (2004)", "key": {"cells [1]": {"test": "cells", "type": "functional, cell-based"}, "cells [2]": {"test": "cells", "type": "functional, cell-based", "remark": "listed apart in the source"}, "[3]": {"test": "A549 cell cytotoxicity, dose response, cytotoxicity control, plate reader, cherry-pick, antagonist series (AID 743412)", "type": "functional, cell-based"}, "[4]": {"test": "HepG2 cell cytotoxicity, dose response, cytotoxicity control, plate reader, cherry-pick, antagonist series (AID 743416)", "type": "functional, cell-based"}, "[5]": {"test": "LGR2 antagonists, dose response, cell-based, HEK293, CRE-luciferase reporter, cherry pick, set 2 (AID 743343);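 further: transfected cells were stimulated with diluted bursicon conditioned medium after compound addition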", "type": "functional"}, "[6]": {"test": "MC4R antagonists, dose response, counter-screen for LGR2 antagonist project, cell-based, plate reader, cherry pick (AID 743444);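 further: transfected HEK 293 cells stimulated with alpha-MSH peptide; potency of inhibitors of the alpha-MSH evoked signal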", "type": "functional"}, "[7]": {"molecular_target": "T1, Oxysterols receptor LXR-beta (Homo sapiens, UniProt P55055)", "T1 sequence (P55055 whole entry)": "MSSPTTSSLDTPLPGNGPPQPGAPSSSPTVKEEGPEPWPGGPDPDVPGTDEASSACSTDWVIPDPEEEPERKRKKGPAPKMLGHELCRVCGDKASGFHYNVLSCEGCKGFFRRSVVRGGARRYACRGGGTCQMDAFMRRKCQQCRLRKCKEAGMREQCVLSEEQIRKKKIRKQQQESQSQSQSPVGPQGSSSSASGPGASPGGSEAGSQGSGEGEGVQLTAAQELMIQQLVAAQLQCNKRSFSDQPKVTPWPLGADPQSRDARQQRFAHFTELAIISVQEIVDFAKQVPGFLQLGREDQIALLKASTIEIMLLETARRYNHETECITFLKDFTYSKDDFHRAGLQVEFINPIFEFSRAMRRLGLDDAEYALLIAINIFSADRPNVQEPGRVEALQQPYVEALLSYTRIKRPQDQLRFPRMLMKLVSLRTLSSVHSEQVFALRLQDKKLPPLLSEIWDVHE", "type": "functional, cell-based"}, "[8]": {"test": "HEK293 cell cytotoxicity, dose response, cytotoxicity control, plate reader, cherry-picked samples (AID 743446)", "type": "functional, cell-based"}, "cells [9]": {"test": "cells"}, "Beta-galactosidase": {"molecular_target": "Beta-galactosidase (Escherichia coli, UniProt Q8VNN2)", "sequence (Q8VNN2 whole entry)": "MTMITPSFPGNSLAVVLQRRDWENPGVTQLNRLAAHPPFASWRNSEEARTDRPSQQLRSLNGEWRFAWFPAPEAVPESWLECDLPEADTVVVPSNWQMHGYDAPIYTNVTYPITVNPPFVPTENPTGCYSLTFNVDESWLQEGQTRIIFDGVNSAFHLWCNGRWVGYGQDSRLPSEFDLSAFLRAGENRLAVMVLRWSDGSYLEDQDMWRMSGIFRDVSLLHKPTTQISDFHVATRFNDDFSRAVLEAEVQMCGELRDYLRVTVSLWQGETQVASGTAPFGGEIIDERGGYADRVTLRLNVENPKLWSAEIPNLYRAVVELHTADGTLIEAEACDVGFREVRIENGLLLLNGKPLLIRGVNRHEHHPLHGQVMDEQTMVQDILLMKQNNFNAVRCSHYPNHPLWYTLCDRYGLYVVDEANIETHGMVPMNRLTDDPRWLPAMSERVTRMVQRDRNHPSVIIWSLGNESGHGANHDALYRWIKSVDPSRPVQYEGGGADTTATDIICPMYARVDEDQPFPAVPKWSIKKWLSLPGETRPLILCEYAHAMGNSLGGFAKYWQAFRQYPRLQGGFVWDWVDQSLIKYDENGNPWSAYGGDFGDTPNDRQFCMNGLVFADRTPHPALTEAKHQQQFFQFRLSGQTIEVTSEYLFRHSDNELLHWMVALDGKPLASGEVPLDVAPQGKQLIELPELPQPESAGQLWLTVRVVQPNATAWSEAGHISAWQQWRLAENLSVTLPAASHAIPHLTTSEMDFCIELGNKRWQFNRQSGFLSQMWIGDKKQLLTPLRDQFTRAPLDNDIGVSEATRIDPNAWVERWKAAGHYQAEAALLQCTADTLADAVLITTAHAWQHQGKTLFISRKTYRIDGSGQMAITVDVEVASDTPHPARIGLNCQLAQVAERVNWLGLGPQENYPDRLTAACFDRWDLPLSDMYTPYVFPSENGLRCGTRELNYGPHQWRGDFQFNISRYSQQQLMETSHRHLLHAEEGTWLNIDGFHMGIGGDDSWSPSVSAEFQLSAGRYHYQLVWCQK", "test": "Dose response counterscreen for EBI2 assay utilizing the enzyme, b-galactosidase.", "type": "functional"}, "INS1": {"tested_on": "INS1", "test": "beta cell apoptosis inhibitors, cytokine rescue, dose response, luminescence, retest (AID 449756);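 further: cell death triggered by IL-1 beta plus TNF-alpha plus IFN-gamma mixture; protective hits raise ATP signal compared with cytokine alone wells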", "type": "functional, cell-based", "settings": "Rattus norvegicus"}, "[10]": {"molecular_target": "T2, Probable nicotinate-nucleotide adenylyltransferase (Staphylococcus aureus (strain N315), UniProt P65502)", "T2 sequence (P65502 whole entry)": "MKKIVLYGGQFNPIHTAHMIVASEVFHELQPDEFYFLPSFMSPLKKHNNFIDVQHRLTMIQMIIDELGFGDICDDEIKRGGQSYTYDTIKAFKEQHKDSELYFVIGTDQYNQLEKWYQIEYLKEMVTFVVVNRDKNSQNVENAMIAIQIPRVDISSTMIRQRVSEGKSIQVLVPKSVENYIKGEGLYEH", "type": "functional, Staphylococcus aureus subsp. aureus N315"}, "[11]": {"molecular_target": "T2, Probable nicotinate-nucleotide adenylyltransferase", "type": "functional, Staphylococcus aureus subsp. aureus N315", "settings": "read-out: IC50_Mean"}, "Fatty acid synthase [12]": {"molecular_target": "T3, Fatty acid synthase (Homo sapiens, UniProt P49327)", "T3 sequence (P49327 whole entry, the tested form may be a part)": "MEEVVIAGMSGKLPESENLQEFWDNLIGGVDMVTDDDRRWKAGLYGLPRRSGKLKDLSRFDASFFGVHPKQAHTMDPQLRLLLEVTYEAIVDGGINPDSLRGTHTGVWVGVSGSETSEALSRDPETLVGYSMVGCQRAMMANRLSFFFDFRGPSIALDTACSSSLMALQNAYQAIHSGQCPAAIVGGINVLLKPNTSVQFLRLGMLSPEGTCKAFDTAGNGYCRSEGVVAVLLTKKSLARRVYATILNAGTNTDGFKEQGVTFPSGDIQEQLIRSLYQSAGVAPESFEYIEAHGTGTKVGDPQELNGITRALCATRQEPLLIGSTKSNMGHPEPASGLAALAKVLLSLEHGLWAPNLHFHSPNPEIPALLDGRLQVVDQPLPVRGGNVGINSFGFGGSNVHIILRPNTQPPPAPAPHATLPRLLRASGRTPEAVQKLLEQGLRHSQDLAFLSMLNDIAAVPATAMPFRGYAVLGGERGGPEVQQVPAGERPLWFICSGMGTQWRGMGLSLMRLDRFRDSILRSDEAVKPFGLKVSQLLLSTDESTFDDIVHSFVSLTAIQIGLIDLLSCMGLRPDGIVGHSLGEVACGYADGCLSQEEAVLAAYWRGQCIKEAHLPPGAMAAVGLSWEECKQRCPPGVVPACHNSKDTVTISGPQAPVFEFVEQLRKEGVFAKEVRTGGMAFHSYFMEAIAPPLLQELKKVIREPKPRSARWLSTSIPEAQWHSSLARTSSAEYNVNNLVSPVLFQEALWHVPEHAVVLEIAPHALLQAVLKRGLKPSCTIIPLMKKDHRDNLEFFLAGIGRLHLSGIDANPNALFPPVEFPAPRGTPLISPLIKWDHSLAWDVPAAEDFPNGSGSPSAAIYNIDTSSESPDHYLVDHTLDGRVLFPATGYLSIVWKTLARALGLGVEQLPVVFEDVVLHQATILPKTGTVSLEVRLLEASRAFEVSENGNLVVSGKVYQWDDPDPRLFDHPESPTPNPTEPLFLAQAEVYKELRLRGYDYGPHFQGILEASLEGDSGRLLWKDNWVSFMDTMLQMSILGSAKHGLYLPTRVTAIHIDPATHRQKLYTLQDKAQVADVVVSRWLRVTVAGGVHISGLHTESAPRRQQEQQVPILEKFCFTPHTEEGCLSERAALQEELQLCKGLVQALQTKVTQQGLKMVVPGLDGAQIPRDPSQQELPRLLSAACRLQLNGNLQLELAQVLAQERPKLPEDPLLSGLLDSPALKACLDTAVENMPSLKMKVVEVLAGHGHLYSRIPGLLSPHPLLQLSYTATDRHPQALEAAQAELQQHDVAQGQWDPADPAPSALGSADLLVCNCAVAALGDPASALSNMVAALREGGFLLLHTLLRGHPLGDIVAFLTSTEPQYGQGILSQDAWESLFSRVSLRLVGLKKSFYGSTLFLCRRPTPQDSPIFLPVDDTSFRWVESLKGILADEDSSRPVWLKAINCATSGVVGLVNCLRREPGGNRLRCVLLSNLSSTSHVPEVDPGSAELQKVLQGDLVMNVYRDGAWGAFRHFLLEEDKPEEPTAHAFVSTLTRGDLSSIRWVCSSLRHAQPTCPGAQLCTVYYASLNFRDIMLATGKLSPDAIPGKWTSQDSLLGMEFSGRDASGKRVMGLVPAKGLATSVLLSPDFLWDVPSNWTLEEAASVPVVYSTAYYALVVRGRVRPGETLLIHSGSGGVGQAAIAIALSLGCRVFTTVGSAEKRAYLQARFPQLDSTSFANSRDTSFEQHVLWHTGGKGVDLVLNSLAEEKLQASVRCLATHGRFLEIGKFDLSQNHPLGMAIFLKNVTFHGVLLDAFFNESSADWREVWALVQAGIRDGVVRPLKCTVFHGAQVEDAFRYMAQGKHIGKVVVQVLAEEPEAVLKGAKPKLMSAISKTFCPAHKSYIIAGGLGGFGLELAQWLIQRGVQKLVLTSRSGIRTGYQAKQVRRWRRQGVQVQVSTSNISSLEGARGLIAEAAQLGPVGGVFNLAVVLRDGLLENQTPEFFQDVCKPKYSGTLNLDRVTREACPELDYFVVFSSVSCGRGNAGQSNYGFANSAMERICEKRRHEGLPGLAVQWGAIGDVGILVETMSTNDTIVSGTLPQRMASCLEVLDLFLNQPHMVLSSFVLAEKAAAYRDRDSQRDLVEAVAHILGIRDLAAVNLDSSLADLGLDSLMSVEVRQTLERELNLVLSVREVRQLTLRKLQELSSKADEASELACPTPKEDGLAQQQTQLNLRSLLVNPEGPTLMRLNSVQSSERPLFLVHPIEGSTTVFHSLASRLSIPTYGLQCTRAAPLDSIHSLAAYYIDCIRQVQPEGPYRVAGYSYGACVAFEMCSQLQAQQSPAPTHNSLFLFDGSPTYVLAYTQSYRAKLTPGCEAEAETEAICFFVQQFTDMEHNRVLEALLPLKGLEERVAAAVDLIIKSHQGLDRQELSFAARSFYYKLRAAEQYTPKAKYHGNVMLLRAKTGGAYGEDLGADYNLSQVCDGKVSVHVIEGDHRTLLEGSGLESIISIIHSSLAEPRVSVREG", "test": "FAS thioesterase domain inhibitors, dose response, biochemical, endpoint fluorescence intensity, uHTS hits (AID 624327);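 further: fluorescence from hydrolysis of an O-methyl fluorescein acyl ester substrate by the enzyme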", "type": "functional"}, "Fatty acid synthase [13]": {"molecular_target": "T3, Fatty acid synthase", "test": "FAS thioesterase domain inhibitors, dose response, biochemical, kinetic fluorescence intensity (AID 624326);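 further: rate of fluorescence rise from hydrolysis of a fluorogenic O-methyl fluorescein ester substrate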", "type": "functional"}, "Galanin receptor type 3": {"molecular_target": "T4, Galanin receptor type 3 (Homo sapiens, UniProt O60755)", "T4 sequence (O60755 whole entry)": "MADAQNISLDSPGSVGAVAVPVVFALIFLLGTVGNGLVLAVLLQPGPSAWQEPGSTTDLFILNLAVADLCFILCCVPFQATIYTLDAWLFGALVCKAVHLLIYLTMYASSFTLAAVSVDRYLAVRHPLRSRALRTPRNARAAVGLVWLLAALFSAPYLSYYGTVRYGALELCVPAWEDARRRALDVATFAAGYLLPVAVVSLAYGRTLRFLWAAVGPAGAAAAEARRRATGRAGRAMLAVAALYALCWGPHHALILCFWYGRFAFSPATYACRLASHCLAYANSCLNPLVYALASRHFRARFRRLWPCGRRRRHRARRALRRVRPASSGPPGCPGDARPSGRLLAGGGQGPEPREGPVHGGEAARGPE", "test": "Fluorescence-based cell-based primary high throughput dose response assay to identify antagonists of the Galanin Receptor 3 (GalR3).", "type": "functional"}, "cells [14]": {"test": "cells", "type": "functional, cell-based", "settings": "HEK-CNG"}, "[15]": {"molecular_target": "T5, Long-chain-fatty-acid--AMP ligase FadD28 (Mycobacterium tuberculosis, UniProt P9WQ59)", "T5 sequence (P9WQ59 whole entry)": "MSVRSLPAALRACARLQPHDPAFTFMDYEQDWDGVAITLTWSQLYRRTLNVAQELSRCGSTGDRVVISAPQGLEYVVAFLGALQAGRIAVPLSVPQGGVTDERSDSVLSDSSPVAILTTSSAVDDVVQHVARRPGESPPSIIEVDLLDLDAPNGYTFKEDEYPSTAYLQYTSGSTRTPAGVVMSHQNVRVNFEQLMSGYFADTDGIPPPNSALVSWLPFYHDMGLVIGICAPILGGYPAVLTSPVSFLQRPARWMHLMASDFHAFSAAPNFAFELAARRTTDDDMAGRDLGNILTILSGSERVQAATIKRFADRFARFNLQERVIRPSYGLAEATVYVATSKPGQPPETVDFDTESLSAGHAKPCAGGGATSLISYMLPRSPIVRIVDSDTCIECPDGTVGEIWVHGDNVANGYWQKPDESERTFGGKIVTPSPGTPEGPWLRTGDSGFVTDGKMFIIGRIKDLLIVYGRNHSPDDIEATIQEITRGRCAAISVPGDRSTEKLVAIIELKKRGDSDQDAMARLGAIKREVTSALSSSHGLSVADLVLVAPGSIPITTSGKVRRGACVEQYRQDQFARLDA", "test": "Fluorescence polarization aasay to screen for inhibitors that compete for the binding of FadD28 to a bisubstrate Measured in Biochemical System Using Plate Reader - 2147-01_Inhibitor_Dose_CherryPick_Activity.", "type": "functional, Mycobacterium tuberculosis H37Rv"}, "[16]": {"test": "cytotoxicity in HEK-293T cells, dose response, cytotoxicity control for TCR NF-kB inhibitor project, luminescence, T-cell screen hits (AID 489026);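 further: cells exposed to compound about 14 hours before the viability readout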", "type": "functional, cell-based"}, "[17]": {"test": "Shn3 3'UTR reporter inhibitors, dose response, cell-based, Clone20 osteoblasts, firefly luciferase, cherry-picked (AID 624132)", "type": "functional"}, "[18]": {"test": "HepG2 cell cytotoxicity, dose response, cytotoxicity control for Shn3 inhibitor project, CellTiter-Glo, cherry-picked (AID 624134)", "type": "functional, cell-based"}, "[19]": {"test": "control 3'UTR Renilla luciferase suppression, dose response, counter-screen for Shn3 inhibitor project, cell-based, Clone20-Shn3RL, cherry-picked (AID 624133)", "type": "functional"}, "cells [20]": {"test": "cells", "type": "functional, cell-based", "remark": "listed apart in the source"}, "[21]": {"molecular_target": "T6, Nuclear receptor subfamily 0 group B member 1 (Homo sapiens, UniProt P51843)", "T6 sequence (P51843 whole entry)": "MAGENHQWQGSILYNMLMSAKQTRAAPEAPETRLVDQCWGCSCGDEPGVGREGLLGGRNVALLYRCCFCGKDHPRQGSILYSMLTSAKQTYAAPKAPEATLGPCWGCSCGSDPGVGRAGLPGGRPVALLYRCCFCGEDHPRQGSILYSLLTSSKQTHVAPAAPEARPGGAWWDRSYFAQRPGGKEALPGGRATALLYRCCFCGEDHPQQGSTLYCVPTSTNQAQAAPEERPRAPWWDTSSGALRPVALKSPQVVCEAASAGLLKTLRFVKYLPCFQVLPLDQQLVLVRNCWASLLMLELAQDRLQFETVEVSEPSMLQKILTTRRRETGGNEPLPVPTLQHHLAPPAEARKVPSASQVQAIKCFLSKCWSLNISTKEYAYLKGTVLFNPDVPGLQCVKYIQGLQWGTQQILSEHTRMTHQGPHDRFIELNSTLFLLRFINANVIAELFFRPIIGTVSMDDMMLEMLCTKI", "type": "functional, cell-based"}}, "note": "Calls of active or inactive are those of the source.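 Wherever IC50 Mean is given: confirmatory dose-response retesting of NadD inhibitor hits first found in an ultra-high-throughput screen.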", "data": [{"molecule": "O=C(Nc1ccc2ccccc2c1)c1ccccc1O", "values": [{"measurement": "EC50", "setting": "cells [1]", "result": "> 350 µM (not active)"}, {"measurement": "EC50", "setting": "cells [2]", "result": "6.87 µM (active)"}, {"measurement": "AC50", "setting": "[3]", "result": "> 52 µM (inactive)"}, {"measurement": "AC50", "setting": "[4]", "result": "6.27 µM (active)"}, {"measurement": "AC50", "setting": "[5]", "result": "7.6 µM (active)"}, {"measurement": "AC50", "setting": "[6]", "result": "6.02 µM (active)"}, {"measurement": "EC50", "setting": "[7]", "result": "> 67.6 µM (inactive)"}, {"measurement": "AC50", "setting": "[8]", "result": "7.8 µM (active)"}, {"measurement": "EC50", "setting": "cells [9]", "result": "> 67.6 µM (inactive)"}]}, {"molecule": "COc1ccc(/C=C/C(=O)N2CCN(S(=O)(=O)/C=C/c3ccccc3)CC2)cc1OC", "values": [{"measurement": "IC50", "setting": "Beta-galactosidase", "result": "> 80 µM (inactive)"}]}, {"molecule": "Cc1cc(-c2ccccc2)n2ncc(-c3ccccc3)c2n1", "values": [{"measurement": "AC50", "setting": "[3]", "result": "> 52 µM (inactive)"}, {"measurement": "AC50", "setting": "[4]", "result": "39.3 µM (active)"}, {"measurement": "AC50", "setting": "[5]", "result": "4.98 µM (active)"}, {"measurement": "AC50", "setting": "[6]", "result": "7.1 µM (active)"}, {"measurement": "EC50", "setting": "[7]", "result": "> 67.5 µM (inactive)"}, {"measurement": "EC50", "setting": "cells [9]", "result": "> 67.5 µM (inactive)"}]}, {"molecule": "Cc1ccc(S(=O)(=O)Nc2ccccc2C(=O)Nc2nc(-c3ccc(F)cc3)cs2)cc1", "values": [{"measurement": "AC50", "setting": "INS1", "result": "2.97 µM (active)"}, {"measurement": "IC50", "setting": "[10]", "result": "7.69 µM (active)"}, {"measurement": "IC50", "setting": "[11]", "result": "62.2 µM (active)"}, {"measurement": "IC50", "setting": "Fatty acid synthase [12]", "result": "9.65 µM (active)"}, {"measurement": "IC50", "setting": "Fatty acid synthase [13]", "result": "10.7 µM (active)"}, {"measurement": "IC50", "setting": "Galanin receptor type 3", "result": "1.44 µM (active)"}, {"measurement": "EC50", "setting": "cells [14]", "result": "> 29.9 µM (inactive)"}]}, {"molecule": "C/C(Cl)=C/Cn1c(SC(C)C)nc2c1c(=O)[nH]c(=O)n2C", "values": [{"measurement": "AC50", "setting": "[15]", "result": "> 100 µM (inactive)"}]}, {"molecule": "Cc1ccc(Oc2ccc(OCC(=O)Nc3ccncc3)cc2)cc1", "values": [{"measurement": "IC50", "setting": "[16]", "result": "> 80 µM (inactive)"}, {"measurement": "AC50", "setting": "[17]", "result": "1.55 µM (active)"}, {"measurement": "AC50", "setting": "[18]", "result": "4.76 µM (active)"}, {"measurement": "AC50", "setting": "[19]", "result": "< 1 µM (active)"}, {"measurement": "IC50", "setting": "Galanin receptor type 3", "result": "0.158 µM (active)"}, {"measurement": "EC50", "setting": "cells [14]", "result": "> 29.9 µM (inactive)"}]}, {"molecule": "S=C(NCCc1ccccc1)Nc1ncccn1", "values": [{"measurement": "IC50", "setting": "cells [20]", "result": "> 67.5 µM (inactive)"}, {"measurement": "IC50", "setting": "[21]", "result": "> 67.5 µM (inactive)"}]}]}
